Data reported in US12396458B2, “Fused ring substituted aromatic compound and preparation method therefor, herbicidal composition, and use thereof” (Qingdao Kingagroot Chemical Compound Co., Ltd., priority 2020, dated 2025).

What was measured:
Test in all cases: Weeding effect in post-emergence stage (greenhouse pot test)
Type in all cases: in vivo
Conyza japonica = conditions: post-emergence, 3 weeks after application, fresh weight control rate
Excerpt: (§1) The activity level criteria for plant damage (i.e., growth control rate) are as follows:
(§2) Level 5: growth control rate is above 85%; • Level 4: growth control rate is greater than or equal to 60% and less than 85%; • Level 3: growth control rate is greater than or equal to 40% and less than 60%; • Level 2: growth control rate is greater than or equal to 20% and less than 40%; • Level 1: growth control rate is greater than or equal to 5% and less than 20%; • Level 0: growth control rate is less than 5%.
(§3) The above growth control rates are fresh weight control rates.
(§4) Experiment on weeding effect in post-emergence stage:
(§5) Monocotyledonous and dicotyledonous weed seeds (Descurainia sophia, Capsella bursa-pastoris, Abutilon theophrasti, Galium aparine, Stellaria media, Lithospermum arvense, Rorippa indica, Alopecurus aequalis, Alopecurus japonicus, Eleusine indica, Beckmannia syzigachne, Sclerochloa dura, Phleum paniculatum, Veronica didyma Tenore, Bromus japonicus, Aegilops tauschii, Phalaris arundinacea, Amaranthus retrojlexus, Chenopodiaceae, Commelina communis, Sonchus arvensis, convolvulus arvensis, Cirsium setosum, Solanum nigrum, Acalypha australis, Digitaria sanguinalis, Echinochloa crusgalli, Setaria viridis, Setaria glauca, Leptochloa chinensis, Monochoria vaginalis, Sagittaria trifolia, Scirpus juncoides, Cyperus rotundus, Cyperus iria, Cyperus difformis, Fimbristylis, Portulaca oleracea, Xanthium sibiricum, Pharbitis nil, Conyza japonica, etc.) and major crop seeds (wheat, corn, rice, soybean, cotton, oilseed rape, millet, sorghum, potato, sesame, ricinus, etc.) were placed in plastic pots filled with soil, then covered with 0.5-2 cm of soil, allowed to grow in a good greenhouse environment. After 2 weeks of sowing, the test plants were treated in the 2-3 leaf stage. The tested compounds of the present invention were respectively dissolved in acetone, then added with Tween 80 and 1.5 liter/ha of emulsifiable concentrate of methyl oleate as synergist, diluted with a certain amount of water to obtain a solution with a certain concentration, and sprayed with a spray tower onto the plants. After the application, the plants were cultured for 3 weeks in the greenhouse, and then the experimental results of the weeding were counted. The doses of the used compounds were 500, 250, 125, 60, 15, 7.5 g a.i./ha, and the averages were obtained by repeating for three times.

Beckmannia syzigachne = conditions: 3 weeks after application, fresh weight control rate
Excerpt: as §1, §2, §3, §4, §5

Capsella bursa-pastoris = conditions: 3 weeks after application, fresh weight control rate
Excerpt: as §1, §2, §3, §4, §5

Alopecurus japonicus = conditions: 3 weeks after application, fresh weight control rate
Excerpt: as §1, §2, §3, §4, §5

SMILES | Activity level (growth control rate), Conyza japonica (Conyza japonica; dose 15 g a.i./ha) | Activity level (growth control rate), Beckmannia syzigachne (Beckmannia syzigachne; dose 15 g a.i./ha) | Activity level (growth control rate), Capsella bursa-pastoris (Capsella bursa-pastoris; dose 15 g a.i./ha) | Activity level (growth control rate), Alopecurus japonicus (Alopecurus japonicus; dose 15 g a.i./ha) | Activity level (growth control rate), Conyza japonica (Conyza japonica; dose 125 g a.i./ha) | Activity level (growth control rate), Beckmannia syzigachne (Beckmannia syzigachne; dose 125 g a.i./ha) | Activity level (growth control rate), Capsella bursa-pastoris (Capsella bursa-pastoris; dose 125 g a.i./ha) | Activity level (growth control rate), Alopecurus japonicus (Alopecurus japonicus; dose 125 g a.i./ha)
Cn1c(=S)n(C)c(=O)n(-c2cc(C3=NOC4(C(=O)OCc5ccccc5)CCCC34)c(Cl)cc2F)c1=O (stereo not drawn) [Compound 51] | 4 (Level 4: growth control rate is greater than or equal to 60% and less than 85%) | 4 (Level 4: growth control rate is greater than or equal to 60% and less than 85%) | 5 (Level 5: growth control rate is above 85%) | 4 (Level 4: growth control rate is greater than or equal to 60% and less than 85%) | – | – | – | –
CCOC(=O)C12ON=C(c3cc(-n4c(=O)cc(C(F)(F)F)n(C)c4=O)c(F)cc3Cl)C1CCC2CC (stereo not drawn) [Compound 477] | 4 (Level 4: growth control rate is greater than or equal to 60% and less than 85%) | 4 (Level 4: growth control rate is greater than or equal to 60% and less than 85%) | 5 (Level 5: growth control rate is above 85%) | 5 (Level 5: growth control rate is above 85%) | – | – | – | –
CCOCOC(=O)C12CCCC1C(c1cc(-n3c(=O)cc(C(F)(F)F)n(C)c3=O)c(F)cc1Cl)=NO2 (stereo not drawn) [Compound 425] | 4 (Level 4: growth control rate is greater than or equal to 60% and less than 85%) | 5 (Level 5: growth control rate is above 85%) | 5 (Level 5: growth control rate is above 85%) | 5 (Level 5: growth control rate is above 85%) | – | – | – | –
COC(=O)C12CCCC1C(c1cc(-c3nnc(C(F)(F)F)cc3OC)c(F)cc1Cl)=NO2 (stereo not drawn) [Compound 578] | 4 (Level 4: growth control rate is greater than or equal to 60% and less than 85%) | – | 5 (Level 5: growth control rate is above 85%) | 5 (Level 5: growth control rate is above 85%) | – | – | – | –
COC(=O)C12CCOC1C(c1cc(-n3c(=O)cc(C(F)(F)F)n(C)c3=O)c(F)cc1Cl)=NO2 (stereo not drawn) [Compound 372] | – | – | – | – | 4 (Level 4: growth control rate is greater than or equal to 60% and less than 85%) | 4 (Level 4: growth control rate is greater than or equal to 60% and less than 85%) | 5 (Level 5: growth control rate is above 85%) | 4 (Level 4: growth control rate is greater than or equal to 60% and less than 85%)
COC(=O)C12CCC(F)C1C(c1cc(-n3c(=O)cc(C(F)(F)F)n(C)c3=O)c(F)cc1Cl)=NO2 (stereo not drawn) [Compound 441] | 4 (Level 4: growth control rate is greater than or equal to 60% and less than 85%) | 4 (Level 4: growth control rate is greater than or equal to 60% and less than 85%) | 5 (Level 5: growth control rate is above 85%) | 4 (Level 4: growth control rate is greater than or equal to 60% and less than 85%) | – | – | – | –
CCOC(=O)C12CCCC1C(c1cc(-n3c(=O)cc(C(F)(F)F)n(C)c3=O)c(F)cc1Cl)=NO2 (stereo not drawn) [Compound 215] | 4 (Level 4: growth control rate is greater than or equal to 60% and less than 85%) | 5 (Level 5: growth control rate is above 85%) | 5 (Level 5: growth control rate is above 85%) | 5 (Level 5: growth control rate is above 85%) | – | – | – | –
C#CCOC(=O)C12CCCC1C(c1cc(-n3c(=O)n(C)c(=S)n(C)c3=O)c(F)cc1Cl)=NO2 (stereo not drawn) [Compound 13] | 4 (Level 4: growth control rate is greater than or equal to 60% and less than 85%) | 5 (Level 5: growth control rate is above 85%) | 5 (Level 5: growth control rate is above 85%) | 5 (Level 5: growth control rate is above 85%) | – | – | – | –
Cn1c(C(F)(F)F)cc(=O)n(-c2cc(C3=NOC4(C(=O)OCCF)CCCC34)c(Cl)cc2F)c1=O (stereo not drawn) [Compound 231] | 4 (Level 4: growth control rate is greater than or equal to 60% and less than 85%) | 5 (Level 5: growth control rate is above 85%) | 5 (Level 5: growth control rate is above 85%) | 5 (Level 5: growth control rate is above 85%) | – | – | – | –
CC(C)OC(=O)C12CCCC1C(c1cc(-n3c(=O)cc(C(F)(F)F)n(C)c3=O)c(F)cc1Cl)=NO2 (stereo not drawn) [Compound 217] | 4 (Level 4: growth control rate is greater than or equal to 60% and less than 85%) | 5 (Level 5: growth control rate is above 85%) | 5 (Level 5: growth control rate is above 85%) | 5 (Level 5: growth control rate is above 85%) | – | – | – | –
Cn1c(C(F)(F)F)cc(=O)n(-c2cc(C3=NOC4(C(=O)N5CCCC5)CCCC34)c(Cl)cc2F)c1=O (stereo not drawn) [Compound 427] | 4 (Level 4: growth control rate is greater than or equal to 60% and less than 85%) | 4 (Level 4: growth control rate is greater than or equal to 60% and less than 85%) | 5 (Level 5: growth control rate is above 85%) | 5 (Level 5: growth control rate is above 85%) | – | – | – | –
CCOC(=O)CCC12CCCC1C(c1cc(-n3c(=O)n(C)c(=S)n(C)c3=O)c(F)cc1Cl)=NO2 (stereo not drawn) [Compound 530] | – | – | – | – | 4 (Level 4: growth control rate is greater than or equal to 60% and less than 85%) | 4 (Level 4: growth control rate is greater than or equal to 60% and less than 85%) | 5 (Level 5: growth control rate is above 85%) | 5 (Level 5: growth control rate is above 85%)
C#CCOC(=O)C12CCCC1C(c1cc(-n3c(=O)cc(C(F)(F)F)n(C)c3=O)c(F)cc1Cl)=NO2 (stereo not drawn) [Compound 225] | 4 (Level 4: growth control rate is greater than or equal to 60% and less than 85%) | 5 (Level 5: growth control rate is above 85%) | 5 (Level 5: growth control rate is above 85%) | 5 (Level 5: growth control rate is above 85%) | – | – | – | –
CCCOC(=O)C12CCCC1C(c1cc(-n3c(=O)cc(C(F)(F)F)n(C)c3=O)c(F)cc1Cl)=NO2 (stereo not drawn) [Compound 216] | 4 (Level 4: growth control rate is greater than or equal to 60% and less than 85%) | 5 (Level 5: growth control rate is above 85%) | 5 (Level 5: growth control rate is above 85%) | 5 (Level 5: growth control rate is above 85%) | – | – | – | –
Cn1c(C(F)(F)F)cc(=O)n(-c2cc(C3=NOC4(C(=O)Oc5ccccc5)CCCC34)c(Cl)cc2F)c1=O (stereo not drawn) [Compound 426] | 4 (Level 4: growth control rate is greater than or equal to 60% and less than 85%) | 4 (Level 4: growth control rate is greater than or equal to 60% and less than 85%) | 5 (Level 5: growth control rate is above 85%) | 5 (Level 5: growth control rate is above 85%) | – | – | – | –
Cn1c(=S)n(C)c(=O)n(-c2cc(C3=NOC4(C(=O)OCC5CCCO5)CCCC34)c(Cl)cc2F)c1=O (stereo not drawn) [Compound 49] | 4 (Level 4: growth control rate is greater than or equal to 60% and less than 85%) | 5 (Level 5: growth control rate is above 85%) | 5 (Level 5: growth control rate is above 85%) | 4 (Level 4: growth control rate is greater than or equal to 60% and less than 85%) | – | – | – | –
COC(=O)C12CCCC1C(c1cc(/N=c3\sc(=O)n4n3CCCC4)c(F)cc1Cl)=NO2 (stereo not drawn) [Compound 575] | 4 (Level 4: growth control rate is greater than or equal to 60% and less than 85%) | – | 5 (Level 5: growth control rate is above 85%) | 4 (Level 4: growth control rate is greater than or equal to 60% and less than 85%) | – | – | – | –
